The source of these data is ChEMBL document CHEMBL1146582, “Phenolic constituents from Dalbergia cochinchinensis” (J Nat Prod, 2003).

Test [1] is described as follows: Inhibition of testerone 5-alpha-reductase at 50 ug/mL.
The nature of test [2]: Inhibition of testerone 5-alpha-reductase at 100 ug/mL.
A short description of test [3]: Inhibition of testerone 5-alpha-reductase at 25 ug/mL.

Structures are written as SMILES.

For `COC1=CC(=O)c2cc(-c3ccccc3)c3cc(O)c(OC)cc3c2C1=O`, the inhibition in test [1] is 52%; in test [2], 65.6%; in test [3] it was 42.8%.
The matching figures for `CC1(C)[C@@H](O)CC[C@]2(C)[C@H]3C(=O)C=C4[C@@H]5C[C@@](C)(C(=O)O)CC[C@]5(C)CC[C@@]4(C)[C@]3(C)CC[C@@H]12`: 64.7%, 87.1% and 31.7%.
For the compound `COC1=CC(=O)C(Cc2oc3cc(OC)c(O)cc3c2-c2ccccc2)=CC1(C/C=C/c1ccccc1)OC` (stereo not drawn), the inhibition in test [1] was determined as 3.8%; in test [2] it was 17%; in test [3], 0.6%.
In the case of `COc1cc2oc(Cc3cc(OC)c(OC)cc3OC/C=C/c3ccccc3)c(-c3ccccc3)c2cc1O`, the inhibition stood at 15.9% in test [1], 18.1% in test [2] and 11.5% in test [3].
`C=CC(c1ccccc1)c1cc(O)c(OC)cc1OC` (stereo not drawn): the inhibition in test [1] is 18.9%; in test [2], 51.8%; in test [3], 8.2%.
The matching figures for `COc1cc(O)ccc1C(=O)/C=C/c1ccccc1`: 20.7%, 22.8% and 19.5%.
